Reference: patent US7723329B2, “Substituted-3-sulfonylindazole derivatives as 5-hydroxytryptamine-6 ligands” (Wyeth LLC, priority 2005, dated 2010)
Counter-ions that a name gives are not always drawn.

Molecular target: T1, human cloned 5-HT6 receptors (Homo sapiens, UniProt P50406)
T1 construct: expressed in transfected cells; host or cells: HeLa cells
Assay: 5-HT6 binding affinity, [3H]-LSD displacement
Details: membranes of Hela cells expressing human cloned 5-HT6 receptors; [3H]-LSD 3.0 nM; 120 minutes at room temperature
Method: The affinity of test compounds for the serotonin 5-HT6 receptor was evaluated in the following manner. Cultured Hela cells expressing human cloned 5-HT6 receptors were harvested and centrifuged at low speed (1,000×g) for 10.0 minutes to remove the culture media. The harvested cells were suspended in half volume of fresh physiological phosphate buffered saline solution and recentrifuged at the same speed. This operation was repeated. The collected cells were then homogenized in ten volumes of 50 mM Tris.HCl (pH 7.4) and 0.5 mM EDTA. The homogenate was centrifuged at 40,000×g for 30.0 min and the precipitate was collected. The obtained pellet was resuspended in 10 volumes of Tris.HCl buffer and recentrifuged at the same speed. The final pellet was suspended in a small volume of Tris.HCl buffer and the tissue protein content was determined in aliquots of 10-25 μl volumes. […] The volume of the suspended cell membranes was adjusted to give a tissue protein concentration of 1.0 mg/ml of suspension. The prepared membrane suspension (10 times concentrated) was aliquoted in 1.0 ml volumes and stored at −70° C. until used in subsequent binding experiments.
The bound complex caught on the filter disk was allowed to air dry and the radioactivity is measured in a Packard TopCount® equipped with six photomultiplier detectors, after the addition of 40.0 μl Microscint®-20 scintillant to each shallow well. The unifilter plate was heat-sealed and counted in a PackardTopCount® with a tritium efficiency of 31.0%.
Specific binding to the 5-HT6 receptor was defined as the total radioactivity bound less the amount bound in the presence of 10.0 μM unlabeled methiothepin. Binding in the presence of varying concentrations of test compound was expressed as a percentage of specific binding in the absence of test compound. The results were plotted as log % bound versus log concentration of test compound. […] A linear regression line of data points was plotted, from which the IC50 value is determined and the Ki value is determined based upon the following equation: Ki=IC50/(1+L/KD) where L was the concentration of the radioactive ligand used and KD is the dissociation constant of the ligand for the receptor, both expressed in nM.

T1 sequence (P50406 whole entry): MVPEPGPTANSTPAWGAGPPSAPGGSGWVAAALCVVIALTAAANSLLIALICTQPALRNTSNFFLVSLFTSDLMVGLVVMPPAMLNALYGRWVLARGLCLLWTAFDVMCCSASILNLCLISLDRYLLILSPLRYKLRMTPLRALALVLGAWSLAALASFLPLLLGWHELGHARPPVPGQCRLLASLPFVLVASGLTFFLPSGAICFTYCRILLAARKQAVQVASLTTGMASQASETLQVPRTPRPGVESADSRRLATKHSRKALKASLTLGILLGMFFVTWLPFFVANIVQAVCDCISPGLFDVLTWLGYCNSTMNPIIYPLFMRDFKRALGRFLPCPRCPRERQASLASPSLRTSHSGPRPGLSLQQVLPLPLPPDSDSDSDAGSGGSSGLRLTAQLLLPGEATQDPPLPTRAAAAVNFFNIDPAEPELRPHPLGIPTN

Row | Compound | Ki
1 | NCCOc1cc(F)cc2c(S(=O)(=O)c3ccccc3)n[nH]c12 [Example 140] | 0.01 to 10 nM
2 | CCNCCOc1cc(F)cc2c(S(=O)(=O)c3cccc4ccccc34)nn(Cc3cccc(Cl)c3)c12 [Example 108] | > 45 nM
3 | CN(C)CCOc1cc(F)cc2c(S(=O)(=O)c3cccc4ccccc34)nn(Cc3cccc(Cl)c3)c12 [Example 109] | 11 to 25 nM
4 | O=S(=O)(c1cccc2ccccc12)c1n[nH]c2ccc(CN3CCNCC3)cc12 [Example 195, 3-(1-Naphthylsulfonyl)-5-(piperazin-1-ylmethyl)-1H-indazole] | 0.01 to 10 nM
5 | O=S(=O)(c1cccc2ccccc12)c1n[nH]c2c(OCCN3CCCC3)cc(F)cc12 [Example 118] | 0.01 to 10 nM
6 | O=S(=O)(c1cccc2ccccc12)c1nn(Cc2cccc(Cl)c2)c2c(OCCN3CCCCC3)cc(F)cc12 [Example 111] | > 45 nM
7 | CN(C)CCOc1cccc2c(S(=O)(=O)c3cccc4ccccc34)nn(C)c12 [Example 96] | > 45 nM
8 | CCN(CC)CCOc1cc(F)cc2c(S(=O)(=O)c3cccc4ccccc34)nn(Cc3cccc(Cl)c3)c12 [Example 110] | > 45 nM
9 | CCNCCCOc1cccc2c(S(=O)(=O)c3cccc4ccccc34)nn(Cc3cccc(Cl)c3)c12 [Example 129] | > 45 nM
10 | NCCOc1cc(F)cc2c(S(=O)(=O)c3cccc4ccccc34)nn(Cc3cccc(Cl)c3)c12 [Example 106, (2-{[1-(3-Chlorobenzyl)-5-fluoro-3-(1-naphthylsulfonyl)-1H-indazol-7-yl]oxy}ethyl)amine] | > 45 nM
11 | O=C(CCN1CCCCC1)Nc1cccc2c(S(=O)(=O)c3cccc4ccccc34)n[nH]c12 [Example 163, N-[3-(Naphthalene-1-sulfonyl)-1H-indazol-7-yl]-3-piperidin-1-yl-propionamide hydrochloride] | 11 to 25 nM
12 | CCN(C)CCOc1ccc2c(c1)c(S(=O)(=O)c1cccc3ccccc13)nn2Cc1ccccc1 [Example 47, {2-[1-Benzyl-3-(naphthalene-1-sulfonyl)-1H-indazol-5-yloxy]-ethyl}-ethyl-methyl-amine] | 26 to 35 nM
13 | CN(C)CCOc1ccc2c(c1)c(S(=O)(=O)c1cccc3ccccc13)nn2Cc1cccc(Cl)c1 [Example 54, {2-[1-(3-Chloro-benzyl)-3-(naphthalene-1-sulfonyl)-1H-indazol-5-yloxy]-ethyl}-dimethyl-amine] | 11 to 25 nM
14 | CC(C)NCCOc1ccc2c(c1)c(S(=O)(=O)c1cccc3ccccc13)nn2Cc1ccccc1 [Example 49, {2-[1-Benzyl-3-(naphthalene-1-sulfonyl)-1H-indazol-5-yloxy]-ethyl}-isopropyl-amine] | 26 to 35 nM
15 | CCN(CC)CCOc1ccc2c(c1)c(S(=O)(=O)c1cccc3ccccc13)nn2Cc1cccc(Cl)c1 [Example 56, {2-[1-(3-Chloro-benzyl)-3-(naphthalene-1-sulfonyl)-1H-indazol-5-yloxy]-ethyl}-diethyl-amine] | > 45 nM
16 | O=S(=O)(c1ccccc1)c1nn(Cc2cccc(Cl)c2)c2c(OCCN3CCCCC3)cccc12 [Example 87] | > 45 nM
17 | NCCC(=O)Nc1cccc2c(S(=O)(=O)c3cccc4ccccc34)n[nH]c12 [Example 164, 3-Amino-N-[3-(naphthalene-1-sulfonyl)-1H-indazol-7-yl]-propionamide hydrochloride] | 0.01 to 10 nM
18 | O=C(CCN1CCCCC1)Nc1ccc2c(S(=O)(=O)c3cccc4ccccc34)n[nH]c2c1 [Example 167, N-[3-(Naphthalene-1-sulfonyl)-1H-indazol-6-yl]-3-piperidin-1-yl-propionamide hydrochloride] | 11 to 25 nM
19 | CN(C)CCOc1ccc2c(c1)c(S(=O)(=O)c1cccc3ccccc13)nn2Cc1ccccc1 [Example 51, {2-[1-Benzyl-3-(naphthalene-1-sulfonyl)-1H-indazol-5-yloxy]-ethyl}-dimethyl-amine] | 11 to 25 nM

The remaining lines, values ahead:

Row | Ki | Compound
20 | 0.01 to 10 nM | CCCCNCCOc1cccc2c(S(=O)(=O)c3ccccc3)n[nH]c12 [Example 91]
21 | 11 to 25 nM | NCCOc1ccc2c(S(=O)(=O)c3cccc4ccccc34)n[nH]c2c1 [Example 146, 2-{[3-(1-Naphtylsulfonyl)-1H-indazol-6-yl]oxy}ethanamine]
22 | 11 to 25 nM | CN(C)CCc1ccc2[nH]nc(S(=O)(=O)c3ccccc3)c2c1 [Example 176, N,N-Dimethyl-N-{2-[3-(phenylsulfonyl)-1H-indazol-5-yl]ethyl}amine hydrochloride]
23 | 0.01 to 10 nM | CN(C)CCCCOc1ccc2[nH]nc(S(=O)(=O)c3cccc4ccccc34)c2c1 [Example 64]
24 | 0.01 to 10 nM | NCCOc1cccc2c(S(=O)(=O)c3cccc4ccccc34)n[nH]c12 [Example 76, (2-{[3-(1-naphthylsulfonyl)-1-H-indazol-7-yl]oxy}ethyl)amine]
25 | 11 to 25 nM | CN(C)CCCc1ccc2[nH]nc(S(=O)(=O)c3ccccc3)c2c1 [Example 177, N,N-Dimethyl-N-{3-[3-(phenylsulfonyl)-1H-indazol-5-yl]propyl}amine trifluoroacetate]
26 | 36 to 45 nM | CCN(CC)CCOc1ccc2[nH]nc(S(=O)(=O)c3ccccc3)c2c1 [Example 5, [2-(3-Benzenesulfonyl-1H-indazol-5-yloxy)-ethyl]-diethyl-amine]
27 | 26 to 35 nM | O=S(=O)(c1ccccc1)c1n[nH]c2ccc(OCCN3CCCCC3)cc12 [Example 3, 3-Benzenesulfonyl-5-(2-piperidin-1-yl-ethoxy)-1H-indazole]
28 | 0.01 to 10 nM | O=S(=O)(c1cccc2ccccc12)c1n[nH]c2ccc(OCCN3CCCCC3)cc12 [Example 38, 3-(Naphthalene-1-sulfonyl)-5-(2-piperidin-1-yl-ethoxy)-1H-indazole]
29 | 0.01 to 10 nM | O=S(=O)(c1cccc2ccccc12)c1n[nH]c2ccc(OCCCNC3CCCC3)cc12 [Example 21, Cyclopentyl-{3-[3-(naphthalene-1-sulfonyl)-1H-indazol-5-yloxy]-propyl}-amine]
30 | 11 to 25 nM | CCNCCOc1ccc2c(c1)c(S(=O)(=O)c1cccc3ccccc13)nn2Cc1cccc(Cl)c1 [Example 60, {2-[1-(3-Chloro-benzyl)-3-(naphthalene-1-sulfonyl)-1H-indazol-5-yloxy]-ethyl}-ethyl-amine]
31 | 0.01 to 10 nM | CNCCOc1cc(F)cc2c(S(=O)(=O)c3cccc4ccccc34)n[nH]c12 [Example 113]
32 | 11 to 25 nM | CC(N)CNc1ccc2[nH]nc(S(=O)(=O)c3cccc4ccccc34)c2c1 (stereo not shown) [Example 159, N1-[3-(Naphthalene-1-sulfonyl)-1H-indazol-5-yl]-propane-1,2-diamine hydrochloride]
33 | > 45 nM | O=S(=O)(c1cccc2ccccc12)c1n[nH]c2cc(OCCN3CCCC3)ccc12 [Example 150]
34 | 0.01 to 10 nM | CCNCCOc1ccc2c(c1)c(S(=O)(=O)c1cccc3ccccc13)nn2C [Example 44, Ethyl-{2-[1-methyl-3-(naphthalene-1-sulfonyl)-1H-indazol-5-yloxy]-ethyl}-amine]
35 | 0.01 to 10 nM | CNCCOc1cccc2c(S(=O)(=O)c3ccccc3)n[nH]c12 [Example 88]
36 | 0.01 to 10 nM | CCN(CC)CCOc1cccc2c(S(=O)(=O)c3ccccc3)n[nH]c12 [Example 90]
37 | 0.01 to 10 nM | NCCC(=O)Nc1ccc2[nH]nc(S(=O)(=O)c3cccc4ccccc34)c2c1 [Example 158, 3-Amino-N-[3-(naphthalene-1-sulfonyl)-1H-indazol-5-yl]-propionamide hydrochloride]
38 | 0.01 to 10 nM | CNCCc1cccc2c(S(=O)(=O)c3ccccc3)n[nH]c12 [Example 173, N-Methyl-N-{2-[3-(phenylsulfonyl)-1H-indazol-7-yl]ethyl}amine trifluoroacetate]
39 | 0.01 to 10 nM | O=S(=O)(c1ccccc1)c1n[nH]c2c(OCCN3CCCC3)cccc12 [Example 92]
40 | 11 to 25 nM | CNCCOc1cccc2c(S(=O)(=O)c3ccccc3)nn(C)c12 [Example 101]
41 | 11 to 25 nM | CNCCOc1ccc2c(S(=O)(=O)c3cccc4ccccc34)n[nH]c2c1 [Example 147, N-Methyl-2-{[3-(1-naphthylsulfonyl)-1H-indazol-6-yl]oxy}ethanamine Hydrochloride]
42 | 0.01 to 10 nM | CCN(C)CCCOc1ccc2[nH]nc(S(=O)(=O)c3cccc4ccccc34)c2c1 [Example 17, Ethyl-methyl-{3-[3-(naphthalene-1-sulfonyl)-1H-indazol-5-yloxy]-propyl}-amine]
43 | 0.01 to 10 nM | O=S(=O)(c1cccc2ccccc12)c1n[nH]c2ccc(OCCCN3CCCC3)cc12 [Example 23, 3-(Naphthalene-1-sulfonyl)-5-(3-pyrrolidin-1-yl-propoxy)-1H-indazole]
44 | 0.01 to 10 nM | O=S(=O)(c1cccc2ccccc12)c1n[nH]c2ccc(OCCCCN3CCCC3)cc12 [Example 67]
45 | 0.01 to 10 nM | CCNCCOc1ccc2[nH]nc(S(=O)(=O)c3ccccc3)c2c1 [Example 4, [2-(3-Benzenesulfonyl-1H-indazol-5-yloxy)-ethyl]-ethyl-amine]
46 | 26 to 35 nM | CCNCCOc1cccc2c(S(=O)(=O)c3ccccc3)nn(C)c12 [Example 102]
